Reference: PMC10856454, “Discovery of Novel Antitumor Small-Molecule Agent with Dual Action of CDK2/p-RB and MDM2/p53” (Molecules, 2024)

Columns and labels:
hERG = target: T1, hERG (Homo sapiens, UniProt Q12809); assay: hERG assay in CHO cells stably expressing hERG; format: cell-based; settings: maximum concentration of 30 μM
T1 construct: expressed in transfected cells; host or cells: CHO cells
Protocol: This test method is a reference to a previous study. CHO cells stably expressing hERG were cultured with medium containing 10% FBS, penicillin (100 U/mL), and streptomycin (100 μg/mL) in DMEM/F12 in an incubator at 37 °C, 5% CO2. Cultures were passaged in a 1:5 ratio every 48 h. The medium consisted of 90% F12, 10% FBS, G418 (100 μg/mL), and hygromycin B (100 μg/mL). On the day of the assay, the current should reach a steady state for at least 1 min prior to administration of the compounds, and the test current was measured again after 5 min of stimulation with different concentrations of the drug.

CDK4 = target: T2, CDK4 (Homo sapiens, UniProt P11802); assay: Kinase antagonist activity assay (TR-FRET), CDK4; format: biochemical
T2 construct: purchased Thermo Fisher Scientific
Protocol: (§1) The compounds were solubilized with DMSO (Solarbio Life Sciences, Beijing, China), and 11 concentrations were serially diluted at 3-fold; 100 nL of compound was added to 384-well plates, 5 μL of 2 × enzyme mixture (Thermo Fisher Scientific, Waltham, MA, USA) was added, and 5 μL of buffer was added instead of the complete inhibition control wells. Then, 1000 rpm centrifugation was performed for 30 s followed by a 15 min incubation at 23 °C. Next, 5 μL of 2 × MLight-MBP peptide (PerkinElmer, Waltham, MA, USA) was added to each well, with 1000 rpm centrifugation for 30 s and incubation at 23 °C for 90 min. At the end of the incubation, the reaction was terminated with buffer containing 15 mM EDTA and 2 nM Eu-anti-P-MBP antibody (PerkinElmer, Waltham, MA, USA), centrifuged at 1000 rpm for 1 min, and incubated at 23 °C for 60 min; the plates were read on a Perkin Elmer Envision ([…]).

[1] = Liver microsomal stability, rat; format: in vitro ADME; settings: Rat liver microsomes
Protocol: (§2) Compounds were incubated with mouse, rat, and human liver microsomal samples and NADPH at 37 °C for 5, 10, 20, 30, or 60 min. The reaction was terminated with a cold acetonitrile solution containing tolbutamide. Compound retention was determined by LC-MS/MS. The retention times, chromatographic acquisition, and chromatographic integration of compounds and positive control substances were analyzed using Analyst (AB Sciex, Framingham, MA, USA).

[2] = test system: p-Rb, p-CDK2, MDM2, p53 in OVCAR3 cells; assay: Western blot of CDK2 pathway, MDM2 and p53 proteins in OVCAR3 cells; format: cell-based
Protocol: (§3) Total protein from HCT116, OVCAR3 cells and tissues was collected and homogenized in RIPA buffer. The total cellular protein extract was electrophoresed on 12% SDS-polyacrylamide gels and then transferred to a PVDF membrane (Thermo Fisher Scientific, Waltham, MA, USA). Primary antibodies were incubated overnight at 4 °C and secondary antibodies were incubated at room temperature for 1.5 h. Imaging was performed using Image Quant LAS4000 (GE, Boston, MA, USA).

OVCAR3 cells [3] = assay: Colony formation, OVCAR3; format: cell-based; settings: 14 days
Protocol: Cells were inoculated in six-well plates at 1000 cells per well, and III-13 was added in a dose-dependent manner after 24 h. Cells were stained with Crystal Violet Staining Solution (Beyotime, Shanghai, China) at 14 days after incubation, and the cell colonies were counted using Image J.

[4] = test system: p-Rb, p-CDK2 in HCT116 cells; assay: Western blot of CDK2 pathway proteins in HCT116 cells; format: cell-based
Protocol: as §3

CDK1 = target: T3, CDK1 (Homo sapiens, UniProt P06493); assay: Kinase antagonist activity assay (TR-FRET), CDK1; format: biochemical
T3 construct: purchased Thermo Fisher Scientific
Protocol: as §1

[5] = Liver microsomal stability, human; format: in vitro ADME; settings: Human liver microsomes
Protocol: as §2

[6] = test system: p-Rb, MDM2, p53 in HCT116 transplanted tumors; assay: Western blot of transplanted tumor tissues of nude mice; format: in vivo, Balb/c nude mice; settings: Western blot of tumor tissue
Protocol: as §3
HCT116 cells (1 × 10^6) were implanted into the back of adult male Balb/c nude mice by subcutaneous injection. […] The solvent or drug containing solution was administered daily to the vehicle and dosing groups by intraperitoneal injection (0.2 mL/20 g). Tumor growth was measured every three days during treatment. At the end of the treatment, the mice were killed, and the tumors were removed and weighed.

HCT116 cells [7] = assay: Cell cycle detection by flow cytometry, HCT116; format: cell-based; settings: 24 h
Protocol: Cells were plated at 300,000 cells overnight in six-well plates. III-13 was added in a dose-dependent fashion and then cells were incubated for 24 h. The cells were then fixed with 75% ethanol overnight at 4 °C. The cells were centrifuged, and ethanol was removed. The cells were washed twice with 1 × PBS following staining with DAPI (4′, 6′ diamino-2-phenylindole) and analyzed using Guava easyCyte HT (Merck KGaA, Darmstadt, Germany) with a blue filter. Experiments were performed in triplicate.

HCT116 cells [8] = assay: Cell scratch test (migration), HCT116; format: cell-based; settings: 24 h
Protocol: Cells were inoculated into six-well plates as long as they spread to the bottom of the wells after wall attachment. After 24 h of wall attachment, cells were scratched with a 200 μL pipette tip and then replaced with low serum medium (1% FBS) containing different concentrations of compounds. Spot photographs were taken at 0 h and 24 h after the scratch was made. Data analysis was performed using Adobe Photoshop 2021 (Adobe Systems Software Ireland Ltd., San Jose, CA, USA) and Image J2 (National Institutes of Health, Bethesda, MD, USA).

OVCAR3 cells [9] = assay: Cell proliferation assay (Celltiter-Glo), OVCAR3; format: cell-based; settings: Homo sapiens, OVCAR-3, 120 h; OVCAR3 (overexpression of CCNE1), five days
Protocol: Celltiter-Glo Luminescent Cell Viability Assay (Promega, Madison, WI, USA) was used to detect cell viability according to the manufacturer’s instructions. This assay is a homogeneous method of determining the number of viable cells in a culture based on quantitation of the ATP present, an indicator of metabolically active cells. Cells were digested and paved in white-bottomed 96-well plates with 1000 cells/100 μL cell suspension solution; then, different concentrations of compounds were added the next day. TOV-21G and HCT116 were placed in the incubator for three days and OVCAR3 for five days. Then, 100 μL Celltiter-Glo solution was added and mixed for 5 min; the luminous intensity of each well was detected with a spectrophotometer (BioTek, Winooski, VT, USA). The experiment was repeated three times to calculate the cell survival rate.

T2 sequence (P11802 whole entry): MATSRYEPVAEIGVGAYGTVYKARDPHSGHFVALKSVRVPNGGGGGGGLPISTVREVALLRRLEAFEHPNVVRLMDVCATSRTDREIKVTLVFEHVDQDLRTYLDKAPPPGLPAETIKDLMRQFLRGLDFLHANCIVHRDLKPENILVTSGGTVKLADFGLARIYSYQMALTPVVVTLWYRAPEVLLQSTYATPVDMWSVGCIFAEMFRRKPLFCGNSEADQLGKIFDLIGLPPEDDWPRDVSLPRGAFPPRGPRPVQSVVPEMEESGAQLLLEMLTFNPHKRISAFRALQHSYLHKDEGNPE
T2 sequence (P24385 whole entry partner): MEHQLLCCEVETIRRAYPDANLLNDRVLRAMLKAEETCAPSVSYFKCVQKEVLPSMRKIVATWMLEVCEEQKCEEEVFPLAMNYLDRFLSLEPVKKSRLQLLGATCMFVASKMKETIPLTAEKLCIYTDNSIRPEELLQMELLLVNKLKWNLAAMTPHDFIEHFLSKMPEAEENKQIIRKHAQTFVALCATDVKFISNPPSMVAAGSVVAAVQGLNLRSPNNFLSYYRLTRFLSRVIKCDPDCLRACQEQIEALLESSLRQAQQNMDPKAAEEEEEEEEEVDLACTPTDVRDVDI
T3 sequence (P06493 whole entry): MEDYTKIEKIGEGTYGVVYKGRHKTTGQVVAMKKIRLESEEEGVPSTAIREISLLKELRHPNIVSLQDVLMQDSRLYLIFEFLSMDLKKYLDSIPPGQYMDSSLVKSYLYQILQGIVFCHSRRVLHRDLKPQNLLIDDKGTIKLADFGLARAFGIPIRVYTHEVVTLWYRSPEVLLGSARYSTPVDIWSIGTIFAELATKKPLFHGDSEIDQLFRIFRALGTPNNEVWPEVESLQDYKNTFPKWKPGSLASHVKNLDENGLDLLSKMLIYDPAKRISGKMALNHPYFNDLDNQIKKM
T3 sequence (P14635 whole entry partner): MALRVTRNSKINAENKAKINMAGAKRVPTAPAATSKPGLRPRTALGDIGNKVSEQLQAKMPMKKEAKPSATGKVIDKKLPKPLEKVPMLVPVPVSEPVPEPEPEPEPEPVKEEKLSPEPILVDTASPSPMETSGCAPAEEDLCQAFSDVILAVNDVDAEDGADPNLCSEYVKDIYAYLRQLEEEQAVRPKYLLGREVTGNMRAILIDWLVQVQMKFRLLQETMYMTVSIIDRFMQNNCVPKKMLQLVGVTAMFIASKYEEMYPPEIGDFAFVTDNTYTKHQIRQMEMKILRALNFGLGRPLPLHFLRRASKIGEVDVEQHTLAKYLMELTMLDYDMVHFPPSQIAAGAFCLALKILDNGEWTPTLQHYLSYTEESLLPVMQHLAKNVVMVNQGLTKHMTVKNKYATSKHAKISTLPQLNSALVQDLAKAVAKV
T1 sequence (Q12809 whole entry): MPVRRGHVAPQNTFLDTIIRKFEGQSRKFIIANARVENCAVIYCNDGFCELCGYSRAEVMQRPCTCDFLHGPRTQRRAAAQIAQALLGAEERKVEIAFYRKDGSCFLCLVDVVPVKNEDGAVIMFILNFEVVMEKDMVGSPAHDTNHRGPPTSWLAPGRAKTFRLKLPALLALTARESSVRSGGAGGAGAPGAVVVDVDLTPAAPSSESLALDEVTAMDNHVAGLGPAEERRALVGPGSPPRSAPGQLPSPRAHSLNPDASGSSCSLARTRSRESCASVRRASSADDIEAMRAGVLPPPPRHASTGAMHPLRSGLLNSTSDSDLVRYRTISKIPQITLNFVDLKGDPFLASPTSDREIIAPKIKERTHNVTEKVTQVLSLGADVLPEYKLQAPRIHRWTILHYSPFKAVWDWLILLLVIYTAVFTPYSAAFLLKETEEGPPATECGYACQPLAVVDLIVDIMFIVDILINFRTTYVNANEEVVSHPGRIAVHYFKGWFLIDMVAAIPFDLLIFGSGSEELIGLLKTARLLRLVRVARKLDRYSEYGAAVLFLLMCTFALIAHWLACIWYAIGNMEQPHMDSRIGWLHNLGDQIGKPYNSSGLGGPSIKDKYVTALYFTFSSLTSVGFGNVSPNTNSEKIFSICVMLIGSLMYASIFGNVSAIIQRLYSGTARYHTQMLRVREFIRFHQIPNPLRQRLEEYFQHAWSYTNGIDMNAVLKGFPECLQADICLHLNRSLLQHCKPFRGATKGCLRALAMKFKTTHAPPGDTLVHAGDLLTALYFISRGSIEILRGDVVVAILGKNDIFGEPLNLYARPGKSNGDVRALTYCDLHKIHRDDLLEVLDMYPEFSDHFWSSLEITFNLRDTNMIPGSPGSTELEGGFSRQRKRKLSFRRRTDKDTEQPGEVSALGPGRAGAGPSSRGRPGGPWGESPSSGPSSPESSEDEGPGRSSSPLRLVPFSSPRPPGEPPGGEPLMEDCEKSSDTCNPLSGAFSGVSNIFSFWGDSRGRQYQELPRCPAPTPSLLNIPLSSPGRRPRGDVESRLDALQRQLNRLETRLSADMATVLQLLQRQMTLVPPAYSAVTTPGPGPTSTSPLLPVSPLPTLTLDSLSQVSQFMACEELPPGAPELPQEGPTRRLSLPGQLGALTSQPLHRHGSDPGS

IC50 (CDK4): 6.24 µM
IC90 (CDK4): 23.1 µM
CLint scaled [1]: 88.9 mL/min/kg
Remaining (T = 60 min) ([1]; 60 min): 22.8%
half-life ([1]; NADPH, 37 °C): 28.1 min
IC50 (CDK1): 0.528 µM
IC90 (CDK1): 5.64 µM
CLint scaled [5]: 59.9 mL/min/kg
Remaining (T = 60 min) ([5]; 60 min): 15.4%
half-life ([5]; NADPH, 37 °C): 21.9 min
IC50 (OVCAR3 cells [9]): 0.115 µM
IC90 (OVCAR3 cells [9]): 0.398 µM
Structure (SMILES): CC1(C)CCN1C(=O)O[C@@H]1CC[C@H](c2cc(NC(=O)Cc3ccc(N4CCCC4=O)cc3)n[nH]2)C1 [III-13]
cardiotoxicity in hERG assay (hERG): no cardiotoxicity
MDM2 protein expression [2]: inhibited
p53 expression [2]: significantly elevated
expression of p-Rb ([2]; OVCAR3 cells): significantly reduced
p-CDK2 expression ([2]; OVCAR3 cells): no significant effect
number of colonies (OVCAR3 cells [3]): significant reduction
expression of p-Rb [4]: significantly reduced
p-CDK2 expression [4]: no significant effect
level of MDM2 in transplanted tumors [6]: significantly down-regulated
level of p53 protein in transplanted tumors [6]: up-regulated
level of p-Rb in the transplanted tumors [6]: significantly reduced
cell cycle arrest (HCT116 cells [7]): arrested HCT116 and OVCAR3 cells in the G0/G1 phase
migration rate (HCT116 cells [8]): decreased significantly
